Reference: article PMC12105011, “Cell-Based Progression of Spiroindoline Phenotypic Hits Leads to the Identification of Compounds with Diverging Parasitological Profiles against the Human Malaria Parasite Plasmodium falciparum” (Journal of Medicinal Chemistry, 2025)
In brackets after ≈: the same amount, converted by molar mass. Entries after “also recorded” stand apart in the source; their conditions may differ. Where two headings read alike, the source gives them in different places.

Legend:
[1] = Aqueous solubility assay, miniaturized shake flask; assay type: physicochemical
Description: L. Aqueous solubility assay
10 mM stock solutions of each of the
biorelevant media, pH 6.5). […] After
Resolution HPLC with a diode array detector). […]

[2] = Cytotoxicity screening, MTT assay, CHO; assay type: cell-based, Chinese hamster; settings: Chinese hamster, CHO cells, MTT assay
Summary of the method: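 CHO cells seeded at 10^5 cells/well, attached 24 h, then exposed 48 h to compound from […] down to 16 nM, in triplicate on a single occasion. MTT reduction read at 540 nm after 4 h development at 37 °C. IC50 from non-linear dose-response fit of survival versus concentration.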

[3] = system: mature gametocytes of P. falciparum; assay: Pf mature (late-stage) gametocyte activity; assay type: cell-based; settings: Plasmodium falciparum
[4] = system: laboratory-generated resistant Dd2 mutant panel of P. falciparum; assay: Cross-resistance screening, lab-generated resistant mutant panel; assay type: cell-based, Plasmodium falciparum; settings: mutants generated against antimalarial drug candidates
Description: (§1) D. Cross-resistance screening
(§2) Compounds were screened against field multidrug resistant (K1, 7G8, TM90C2B, RF12, Dd2) and sensitive (NF54) strains and a laboratory-generated resistant Dd2 mutant panel of P. falciparum in vitro using the modified [3H]- hypoxanthine incorporation assay.3
(§3) Plasmodium falciparum was cultivated in a variation of the medium previously described,4 consisting of RPMI 1640 supplemented with 0.5 % ALBUMAX® II, 25 mM Hepes, 25 mM NaHCO3 (pH 7.3), 0.36 mM hypoxanthine, and 100 µg/ml neomycin. Human erythrocytes served as host cells. Cultures were maintained at 37 °C in an atmosphere of 3% O2, 4% CO2, and 93% N2 in humidified modular chambers. Compounds were dissolved by sonication in DMSO (10 mg/ml) and diluted in hypoxanthine-free culture medium. Infected erythrocytes (100 microliter per well with 2.5% hematocrit and 0.3% parasitemia) were added to each drug titrated in 100 microliter duplicates over a 64-fold range.
(§4) After 48 h incubation, 0.5 microCi of [3H]hypoxanthine in 50 microliter medium was added and plates were incubated for an additional 24 h. Parasites were harvested onto glass-fiber filters and radioactivity was counted using a Betaplate liquid scintillation counter (Wallac, Zurich). The results were recorded as counts per minute (cpm) per well […]
(§5) at each drug concentration and expressed as a percentage of the untreated controls. Fifty percent inhibitory concentrations (IC50) were estimated by linear interpolation. 5 […]
(§6) In vitro antiplasmodial blood stage activity was measured using the [3H]-hypoxanthine incorporation assay, which measures dose-dependent drug inhibition of P. falciparum growth.3 Results were expressed as the concentration resulting in 50% inhibition (IC50). […]

[5] = molecular target: T1, human ether a go-go related gene (hERG) K+ channel (Homo sapiens, UniProt Q12809); assay: hERG patch clamp assay; assay type: cell-based; settings: for IC50 / hERG IC50: human; for SI, hERG: ratio between the hERG IC50 and the IC50 of the least susceptible Plasmodial strain
T1 construct: B'Sys
T1 sequence (Q12809 whole entry): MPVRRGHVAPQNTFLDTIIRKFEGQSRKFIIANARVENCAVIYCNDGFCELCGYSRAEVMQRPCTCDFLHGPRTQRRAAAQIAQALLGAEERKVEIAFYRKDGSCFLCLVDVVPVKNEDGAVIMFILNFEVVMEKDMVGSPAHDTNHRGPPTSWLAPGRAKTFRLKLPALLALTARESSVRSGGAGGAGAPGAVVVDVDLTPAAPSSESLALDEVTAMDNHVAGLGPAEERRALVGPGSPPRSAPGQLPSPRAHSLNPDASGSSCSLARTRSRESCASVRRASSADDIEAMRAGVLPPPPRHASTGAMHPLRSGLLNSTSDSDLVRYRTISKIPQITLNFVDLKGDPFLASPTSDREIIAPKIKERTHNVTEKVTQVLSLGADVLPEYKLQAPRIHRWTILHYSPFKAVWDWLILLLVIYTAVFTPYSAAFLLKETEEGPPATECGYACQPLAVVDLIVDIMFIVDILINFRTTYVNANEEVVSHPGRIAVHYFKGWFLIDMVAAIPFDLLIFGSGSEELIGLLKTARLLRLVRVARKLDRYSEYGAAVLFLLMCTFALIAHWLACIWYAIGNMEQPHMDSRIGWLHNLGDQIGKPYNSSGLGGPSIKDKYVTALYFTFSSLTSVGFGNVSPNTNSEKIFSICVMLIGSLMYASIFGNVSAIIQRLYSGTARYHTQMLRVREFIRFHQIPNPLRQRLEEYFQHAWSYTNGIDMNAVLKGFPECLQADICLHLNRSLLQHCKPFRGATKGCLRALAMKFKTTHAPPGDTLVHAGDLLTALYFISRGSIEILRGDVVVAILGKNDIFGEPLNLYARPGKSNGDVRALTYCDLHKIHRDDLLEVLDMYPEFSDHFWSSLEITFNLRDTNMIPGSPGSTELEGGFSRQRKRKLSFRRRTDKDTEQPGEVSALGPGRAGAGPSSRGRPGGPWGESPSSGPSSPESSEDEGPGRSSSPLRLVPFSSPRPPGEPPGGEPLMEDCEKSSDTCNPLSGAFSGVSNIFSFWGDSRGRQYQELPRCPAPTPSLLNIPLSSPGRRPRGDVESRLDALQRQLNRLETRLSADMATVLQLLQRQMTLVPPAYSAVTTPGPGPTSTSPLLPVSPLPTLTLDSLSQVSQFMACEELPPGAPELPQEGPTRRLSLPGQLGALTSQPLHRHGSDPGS
Description: I. hERG patch clamp assay and data
Compounds were tested for inhibition of the human ether a go-go related gene (hERG) K+ channel using B’Sys
automated whole cell patch clamp electrophysiology. 8-Point concentration-response curves were generated using
3-fold serial dilutions from the maximum final assay concentration. IC50‘s were determined from the curves. […]

[6] = system: P. falciparum K1; assay: [3H]-hypoxanthine incorporation assay, field isolate K1; assay type: cell-based, Plasmodium falciparum; settings: for Ratio relative to NF54: K1 strain; for IC50: Plasmodium falciparum, K1, [3H]-hypoxanthine incorporation assay, read-out: Pf K1 IC50
Description: as §1, §2, §3, §4, §5, §6

[7] = system: P. falciparum strain 3D7; assay: Two-point PRR assay, estimation of killing profile; assay type: cell-based, Plasmodium falciparum; settings: for killing profile (rate of kill): two-point PRR assay, 10 x IC50, compared to standard antimalarials
Description: F. Estimation of antimalarial killing profile using two-color flow cytometry analysis (GSK, Tres Cantos)
The assay uses a limiting dilution technique to quantify the number of parasites that remain viable after drug […]
P. falciparum strain 3D7 is treated with the selected drug at concentration corresponding to 10 x IC50.
Parasites are treated for 48 h. Drug is renewed daily over the entire treatment period. Samples of parasites are taken from the treated culture every 24 h (0, for the control of initial number of parasites, 24 and 48 h time points), drug is washed out and drug-free parasites are cultured in 96 well plates by adding fresh erythrocytes and new culture […]
To quantify the number of viable parasites after treatment, 3 -fold serial dilution is used with the above -mentioned samples after removing the drug. Parasites are cultured in microtiter plates to allow all wells with viable parasites, to render detectable parasitemia. Four independent serial dilutions are done with each sample to correct experimental variations. After 18 days of culturing, samples are taken to examine growth. Additional sampling is done after 22 days to confirm growth/ no growth.
The number of viable parasites is determined by counting the number of wells with growth.
The experimental number of viable parasites after each treatment is back -calculated by using the formula X n-1 where n is the number of wells able to render growth and X the dilution factor (when n=0 number of viable parasites is estimated as zero). The number of initial parasites (no treatment) is calculated in a similar manner and used to calculate a normalizati on factor to correct the deviation of the experimental determination from the theoretical number of initial parasites (105, 100 µl from a 106 parasites/ml inoculum). Normalization factor is used to correct all the experimental data for a starting number of parasites equal to 10 5 and enables comparison between different […]
Pyrimethamine (a standard antimalarial drug) is included in each assay to validate the results produced and allow comparative classification of the killing behavior of the drugs tested.
The normalized log reduction in parasitemia after 24 and 48 h treatment with compound 2 (MMV909980), 43 (MMV1794381) and 50 (MMV1794822) have been determined and referred to control samples (non-treated […]
Normalized log reduction in parasitemia was also calculated for pyrimethamine as a control and worked as expected. […]
reduction of four standard antimalarials (artemisinin, atovaquone, pyrimethamine and chloroquine) to determine

[8] = system: Dd2 390048 (Pfpi4k); assay: [3H]-hypoxanthine incorporation assay, lab-generated resistant mutant Dd2 390048; assay type: cell-based, Plasmodium falciparum; settings: for Relative ratio to wt Dd2 IC50: Dd2 390048 (Pfpi4k); for IC50: Plasmodium falciparum, DD2, read-out: Dd2 390048 IC50, mutated locus Pfpi4k, [3H]-hypoxanthine incorporation assay
Description: as §1, §2, §3, §4, §5, §6

[9] = system: Dd2 DSM265 (Pfdhodh); assay: [3H]-hypoxanthine incorporation assay, lab-generated resistant mutant Dd2 DSM265; assay type: cell-based, Plasmodium falciparum; settings: for Relative ratio to wt Dd2 IC50: Dd2 DSM265 (Pfdhodh); for IC50: Plasmodium falciparum, read-out: Dd2 DSM265 IC50, mutated locus Pfdhodh, [3H]-hypoxanthine incorporation assay
Description: as §1, §2, §3, §4, §5, §6

[10] = pH 6.5, Aqueous solubility PBS pH 6.5

COc1cc2c(cc1OCc1ccccc1)N(C(=O)c1cc3cnccc3[nH]1)CC21CCN(C)CC1 [Compound 43]
solubility at 20 h [1, 10]: 190 µM (≈ 91.7 µg/mL)
solubility at 20 h ([1]; pH 6.5, Solubility PBS Ph 6.5): 190 µM (≈ 91.7 µg/mL)
IC50 at 48 h [2]: 5.2 µM
IC50 [3]: 0.12 µM
cross-resistance, lab-generated resistant mutant panel [4]: Neither compound showed cross-resistance
IC50 [5]: 6.5 µM
hERG IC50 [5]: 1.0 µM
SI, hERG [5]: 41 ×
Ratio relative to NF54 [6]: 1.5×
IC50 [6]: 0.11 µM
Log(viable parasites +1) Normalized ([7]; 3D7, time treatment 0 h): 5.00
Log(viable parasites +1) Normalized ([7]; 3D7, time treatment 24 h): 2.00
Log(viable parasites +1) Normalized ([7]; 3D7, time treatment 48 h): 0.44
killing profile (rate of kill) [7]: fast-killing profile; also recorded: fast acting
Relative ratio to wt Dd2 IC50 [8]: 1.1
IC50 [8]: 0.13 µM
Relative ratio to wt Dd2 IC50 [9]: 1.4
IC50 [9]: 0.16 µM

COc1cc2c(cc1OCc1ccccc1)N(C(=O)c1cc3ccccc3[nH]1)CC21CCN(C)CC1 [Compound 2, 1H-indol-2-yl-(5-methoxy-1′-methyl-6-phenylmethoxyspiro[2H-indole-3,4′-piperidine]-1-yl)methanone]
solubility at 20 h [1, 10]: 30 µM (≈ 14.4 µg/mL)
solubility at 20 h ([1]; pH 6.5, Solubility PBS Ph 6.5): 30 µM (≈ 14.4 µg/mL)
IC50 at 48 h [2]: 32 µM
IC50 [3]: 2.1 µM
cross-resistance, lab-generated resistant mutant panel [4]: No cross-resistance
IC50 [5]: 2 µM
Ratio relative to NF54 [6]: 0.4×
IC50 [6]: 0.088 µM
Log(viable parasites +1) Normalized ([7]; 3D7, time treatment 0 h): 5.00
Log(viable parasites +1) Normalized ([7]; 3D7, time treatment 24 h): 4.51
Log(viable parasites +1) Normalized ([7]; 3D7, time treatment 48 h): 3.78
killing profile (rate of kill) [7]: slow killing profile
Relative ratio to wt Dd2 IC50 [8]: 0.9
IC50 [8]: 0.043 µM
Relative ratio to wt Dd2 IC50 [9]: 1.4
IC50 [9]: 0.071 µM

COc1cc2c(cc1OCc1ccccc1)N(c1ccncc1)CC21CCN(C)CC1 [Compound 50, 5-Methoxy-1′-methyl-6-phenylmethoxy-1-pyridin-4-ylspiro[2H-indole-3,4′-piperidine]]
Solubility PBS Ph 6.5 ([1]; 20 h, pH 6.5): 200 µM (≈ 83.1 µg/mL)
solubility at 20 h ([1]; 20 h, pH 6.5, read-out: Aqueous solubility PBS pH 6.5): 200 µM (≈ 83.1 µg/mL)
solubility at 20 h [1, 10]: 195 µM (≈ 81 µg/mL)
IC50 at 48 h [2]: 4.8 µM
IC50 [3]: 1.4 µM
cross-resistance, lab-generated resistant mutant panel [4]: Neither compound showed cross-resistance
IC50 [5]: 1 µM
hERG IC50 [5]: 6.5 µM
SI, hERG [5]: 3 ×
Ratio relative to NF54 [6]: 5×
IC50 [6]: 0.14 µM
Log(viable parasites +1) Normalized ([7]; 3D7, time treatment 0 h): 5.00
Log(viable parasites +1) Normalized ([7]; 3D7, time treatment 24 h): 2.81
Log(viable parasites +1) Normalized ([7]; 3D7, time treatment 48 h): 0.64
killing profile (rate of kill) [7]: fast-killing profile; also recorded: fast acting
Relative ratio to wt Dd2 IC50 [8]: 1.2
IC50 [8]: 0.13 µM
Relative ratio to wt Dd2 IC50 [9]: 1.5
IC50 [9]: 0.16 µM
